Measured values taken from publication PMC5421785, “Citrullination only infrequently impacts peptide binding to HLA class II MHC” (PLoS ONE, 2017).
Read-outs that look alike come from different tables or passages of the source. Square brackets hold non-standard residues; d marks the D form. Peptide text beside a SMILES is read from it. Cit = NC(=O)NCCC[C@H](N)C(=O)O

Tests used:
HLA-DRB1*01:01 = biological target: T1, HLA-DRB1*01:01 (Homo sapiens, UniProt P01903+P01911, A100R/D57E/F55L/F60I/F76Y/I96L/L162R/M171V/P40L/Q125E/R42F/V115G/Y59C); test: HLA class II peptide binding, inhibition of radiolabeled peptide binding to purified MHC
T1 construct: EBV transformed homozygous cell lines were used as sources of MHC molecules; endogenous in cells; host or cells: EBV transformed homozygous cell lines

HLA-DRB1*04:01 = biological target: T2, HLA-DRB1*04:01 (Homo sapiens, UniProt P01903+P01911, A100K/A169T/F76Y/I96L/K127E/L162R/M171V/N62H/P40V/Q125Y/R42H/S133A/S149N/S66Y/V115G/V209L/W38E); test: as above
T2 construct: EBV transformed homozygous cell lines were used as sources of MHC molecules; endogenous in cells; host or cells: EBV transformed homozygous cell lines

[1] = read-out: DRB1*01:01 binding capacity, WT peptide (IC50 nM)
[2] = read-out: DRB1*04:01 binding capacity, WT peptide (IC50 nM)
[3] = wild-type (unmodified Arg) 15-mer peptide, purified HLA-DRB1*01:01, read-out: DRB1*01:01 binding capacity, WT peptide (IC50 nM)
[4] = wild-type (unmodified Arg) 15-mer peptide, purified HLA-DRB1*04:01, read-out: DRB1*04:01 binding capacity, WT peptide (IC50 nM)
[5] = citrullinated 15-mer (X), purified MHC, inhibition of radiolabeled peptide binding, dash = IC50 >40,000 nM, read-out: DRB1*01:01 binding capacity, Cit peptide (IC50 nM)
[6] = citrullinated 15-mer (X), purified MHC, inhibition of radiolabeled peptide binding, dash = IC50 >40,000 nM, read-out: DRB1*04:01 binding capacity, Cit peptide (IC50 nM)
[7] = citrullinated 15-mer peptide (X = citrulline), purified HLA-DRB1*01:01, read-out: DRB1*01:01 binding capacity, Cit peptide (IC50 nM)
[8] = ratio of WT IC50 to Cit IC50, >1 = citrullination increases binding
[9] = citrullinated 15-mer peptide (X = citrulline), purified HLA-DRB1*04:01, read-out: DRB1*04:01 binding capacity, Cit peptide (IC50 nM)

SMILES | IC50 (HLA-DRB1*01:01; [1]) [nM] | IC50 (HLA-DRB1*04:01; [2]) [nM] | IC50 (HLA-DRB1*01:01; [3]) [nM] | IC50 (HLA-DRB1*04:01; [4]) [nM] | further results
CC(C)C[C@H](NC(=O)[C@H](CO)NC(=O)[C@H](Cc1ccccc1)NC(=O)[C@H](CC(=O)O)NC(=O)[C@@H](NC(=O)[C@H](CO)NC(=O)[C@H](CC(=O)O)NC(=O)[C@H](CCC(N)=O)NC(=O)[C@H](CC(C)C)NC(=O)[C@H](CC(C)C)NC(=O)[C@H](CCCNC(=N)N)NC(=O)[C@@H](NC(=O)CN)C(C)C)C(C)C)C(=O)N[C@@H](C)C(=O)N[C@@H](CC(=O)O)C(=O)O [Vimentin 76 WT] | 358 | 596 |  |  | 
CC[C@H](C)[C@H](NC(=O)[C@H](Cc1ccc(O)cc1)NC(=O)[C@H](CC(N)=O)NC(=O)[C@H](C)NC(=O)[C@H](Cc1ccccc1)NC(=O)[C@H](CCCNC(=N)N)NC(=O)[C@H](CC(=O)O)NC(=O)[C@H](CC(N)=O)NC(=O)[C@H](CC(C)C)NC(=O)[C@H](CCC(=O)O)NC(=O)[C@H](CCC(N)=O)NC(=O)[C@H](CC(C)C)NC(=O)[C@@H](N)CCC(=O)O)C(=O)N[C@@H](CC(=O)O)C(=O)N[C@@H](CCCCN)C(=O)O [Vimentin 106 WT] | 3070 | > 40000 |  |  | 
CC[C@H](C)[C@H](NC(=O)[C@H](CCCCN)NC(=O)[C@H](CC(N)=O)NC(=O)[C@H](CCC(N)=O)NC(=O)[C@H](CCC(N)=O)NC(=O)[C@H](CCC(=O)O)NC(=O)[C@H](CC(C)C)NC(=O)[C@H](Cc1ccccc1)NC(=O)[C@H](CCCNC(=N)N)NC(=O)[C@@H](N)C(C)C)C(=O)N[C@@H](CC(C)C)C(=O)N[C@@H](CC(C)C)C(=O)N[C@@H](C)C(=O)N[C@@H](CCC(=O)O)C(=O)N[C@@H](CC(C)C)C(=O)O [Vimentin 121 WT] | 5.7 | 513 |  |  | 
CC(C)C[C@H](NC(=O)[C@H](CCCNC(=N)N)NC(=O)[C@H](CO)NC(=O)[C@H](CCCCN)NC(=O)CNC(=O)[C@H](CCC(N)=O)NC(=O)CNC(=O)[C@H](CCCCN)NC(=O)[C@H](CC(C)C)NC(=O)[C@H](CCC(N)=O)NC(=O)[C@@H](N)CCC(=O)O)C(=O)NCC(=O)N[C@@H](CC(=O)O)C(=O)N[C@@H](CC(C)C)C(=O)N[C@@H](Cc1ccc(O)cc1)C(=O)O [Vimentin 136 WT] | 3720 | > 40000 |  |  | 
CSCC[C@H](NC(=O)[C@H](CCC(=O)O)NC(=O)[C@H](CCC(=O)O)NC(=O)[C@H](CCC(=O)O)NC(=O)[C@H](Cc1ccc(O)cc1)NC(=O)[C@H](CC(C)C)NC(=O)[C@H](CC(=O)O)NC(=O)CNC(=O)[C@@H](N)CC(C)C)C(=O)N[C@@H](CCCNC(=N)N)C(=O)N[C@@H](CCC(=O)O)C(=O)N[C@@H](CC(C)C)C(=O)N[C@@H](CCCNC(=N)N)C(=O)N[C@@H](CCCNC(=N)N)C(=O)N[C@@H](CCC(N)=O)C(=O)O [Vimentin 146 WT] | 9380 | 38500 |  |  | 
CC[C@H](C)[C@H](NC(=O)[C@H](CCC(=O)O)NC(=O)[C@H](CC(=O)O)NC(=O)[C@@H](N)CCC(N)=O)C(=O)N[C@@H](CCC(N)=O)C(=O)N[C@@H](CC(N)=O)C(=O)N[C@@H](CCSC)C(=O)N[C@@H](CCCCN)C(=O)N[C@@H](CCC(=O)O)C(=O)N[C@@H](CCC(=O)O)C(=O)N[C@@H](CCSC)C(=O)N[C@@H](C)C(=O)N[C@@H](CCCNC(=N)N)C(=O)N[C@@H](Cc1c[nH]cn1)C(=O)N[C@@H](CC(C)C)C(=O)O [Vimentin 366 WT] |  |  | 7110 | 4550 | 
CSCC[C@H](NC(=O)[C@H](CCC(=O)O)NC(=O)[C@H](CCC(=O)O)NC(=O)[C@H](CCCCN)NC(=O)[C@H](CCSC)NC(=O)[C@@H](N)CC(N)=O)C(=O)N[C@@H](C)C(=O)N[C@@H](CCCNC(=N)N)C(=O)N[C@@H](Cc1c[nH]cn1)C(=O)N[C@@H](CC(C)C)C(=O)N[C@@H](CCCNC(=N)N)C(=O)N[C@@H](CCC(=O)O)C(=O)N[C@@H](Cc1ccc(O)cc1)C(=O)N[C@@H](CCC(N)=O)C(=O)N[C@@H](CC(=O)O)C(=O)O [Vimentin 371 WT] |  |  | 3020 | > 40000 | 
CC[C@H](C)[C@H](NC(=O)[C@H](CC(=O)O)NC(=O)[C@H](CC(C)C)NC(=O)[C@H](C)NC(=O)[C@H](CCSC)NC(=O)[C@H](CCCCN)NC(=O)[C@@H](NC(=O)[C@H](CC(N)=O)NC(=O)[C@H](CC(C)C)NC(=O)[C@H](CC(C)C)NC(=O)[C@H](CC(=O)O)NC(=O)[C@H](CCC(N)=O)NC(=O)[C@H](Cc1ccc(O)cc1)NC(=O)[C@H](CCC(=O)O)NC(=O)[C@@H](N)CCCNC(=N)N)C(C)C)C(=O)O [Vimentin 381 WT] |  |  | 192 | 1220 | 
CC[C@H](C)[C@H](NC(=O)[C@H](CCCNC(=N)N)NC(=O)[C@H](CO)NC(=O)[C@H](CCC(=O)O)NC(=O)[C@H](CCC(=O)O)NC(=O)CNC(=O)[C@H](CCC(=O)O)NC(=O)[C@H](CC(C)C)NC(=O)[C@H](CC(C)C)NC(=O)[C@H](CCCCN)NC(=O)[C@@H](N)CCCNC(=N)N)C(=O)N[C@@H](CO)C(=O)N[C@@H](CC(C)C)C(=O)N1CCC[C@H]1C(=O)N[C@@H](CC(C)C)C(=O)O [Vimentin 401 WT] |  |  | 1920 | 2710 | 
CC[C@H](C)[C@H](N)C(=O)N[C@@H](CO)C(=O)N[C@@H](CC(C)C)C(=O)N1CCC[C@H]1C(=O)N[C@@H](CC(C)C)C(=O)N1CCC[C@H]1C(=O)N[C@@H](CC(N)=O)C(=O)N[C@@H](Cc1ccccc1)C(=O)N[C@@H](CO)C(=O)N[C@@H](CO)C(=O)N[C@@H](CC(C)C)C(=O)N[C@@H](CC(N)=O)C(=O)N[C@@H](CC(C)C)C(=O)N[C@@H](CCCNC(=N)N)C(=O)N[C@@H](CCC(=O)O)C(=O)O [Vimentin 411 WT] |  |  | 326 | 7000 | 
CC(C)C[C@H](NC(=O)[C@H](CC(N)=O)NC(=O)[C@@H](NC(=O)[C@H](CCC(=O)O)NC(=O)[C@H](CCCNC(=N)N)NC(=O)[C@H](CC(C)C)NC(=O)[C@H](CC(N)=O)NC(=O)[C@@H](N)CC(C)C)[C@@H](C)O)C(=O)N[C@@H](CC(=O)O)C(=O)N[C@@H](CO)C(=O)N[C@@H](CC(C)C)C(=O)N1CCC[C@H]1C(=O)N[C@@H](CC(C)C)C(=O)N[C@H](C(=O)N[C@@H](CC(=O)O)C(=O)O)C(C)C [Vimentin 421 WT] |  |  | 96 | 3740 | 
CC(C)C[C@H](NC(=O)[C@@H](NC(=O)[C@H](CC(N)=O)NC(=O)[C@H](CCC(=O)O)NC(=O)[C@H](C)NC(=O)[C@H](CCC(=O)O)NC(=O)[C@H](CCC(=O)O)NC(=O)[C@@H](N)CCCNC(N)=O)[C@@H](C)O)C(=O)N[C@@H](CCC(N)=O)C(=O)N[C@@H](CO)C(=O)N[C@@H](Cc1ccccc1)C(=O)N[C@@H](CCCNC(=N)N)C(=O)N[C@@H](CCC(N)=O)C(=O)N[C@@H](CC(=O)O)C(=O)N[C@H](C(=O)O)C(C)C [XEEAENTLQSFRQDV] (H-[Cit]EEAENTLQSFRQDV-OH) |  |  |  |  | IC50 (HLA-DRB1*01:01; [5]): 25300 nM; IC50 (HLA-DRB1*04:01; [6]): 6330 nM
C[C@H](NC(=O)CNC(=O)[C@@H]1CCCN1C(=O)[C@H](CO)NC(=O)CNC(=O)[C@H](CCC(=O)O)NC(=O)[C@@H](N)CCCNC(N)=O)C(=O)N[C@@H](CC(=O)O)C(=O)NCC(=O)N1CCC[C@H]1C(=O)N1CCC[C@H]1C(=O)NCC(=O)N[C@@H](CCCNC(=N)N)C(=O)N[C@@H](CC(=O)O)C(=O)NCC(=O)O [XEGSPGADGPPGRDG] (H-[Cit]EGSPGADGPPGRDG-OH; N-terminus and C-terminus assumed) |  |  |  |  | IC50 (HLA-DRB1*01:01; [7]): > 40000 nM; DRB1*01:01 binding capacity, WT/cit ratio (HLA-DRB1*01:01; [8]): 1.0; IC50 (HLA-DRB1*04:01; [9]): > 40000 nM; DRB1*04:01 binding capacity, WT/cit ratio (HLA-DRB1*04:01; [8]): 1.0
CSCC[C@H](NC(=O)[C@H](CCC(=O)O)NC(=O)[C@H](CCC(=O)O)NC(=O)[C@H](CCC(N)=O)NC(=O)[C@H](CC(C)C)NC(=O)[C@H](CCCCN)NC(=O)[C@H](CCC(=O)O)NC(=O)[C@@H](N)CCCNC(N)=O)C(=O)N[C@@H](CC(C)C)C(=O)N[C@@H](CCC(N)=O)C(=O)N[C@@H](CCCNC(=N)N)C(=O)N[C@@H](CCC(=O)O)C(=O)N[C@@H](CCC(=O)O)C(=O)N[C@@H](C)C(=O)N[C@@H](CCC(=O)O)C(=O)O [XEKLQEEMLQREEAE] (H-[Cit]EKLQEEMLQREEAE-OH) |  |  |  |  | IC50 (HLA-DRB1*01:01; [5]): 26100 nM; IC50 (HLA-DRB1*04:01; [6]): > 40000 nM
CC[C@H](C)[C@H](NC(=O)[C@H](CC(=O)O)NC(=O)[C@H](CC(C)C)NC(=O)[C@H](C)NC(=O)[C@H](CCSC)NC(=O)[C@H](CCCCN)NC(=O)[C@@H](NC(=O)[C@H](CC(N)=O)NC(=O)[C@H](CC(C)C)NC(=O)[C@H](CC(C)C)NC(=O)[C@H](CC(=O)O)NC(=O)[C@H](CCC(N)=O)NC(=O)[C@H](Cc1ccc(O)cc1)NC(=O)[C@H](CCC(=O)O)NC(=O)[C@@H](N)CCCNC(N)=O)C(C)C)C(=O)O [XEYQDLLNVKMALDI] |  |  |  |  | IC50 (HLA-DRB1*01:01; [7]): 57 nM; IC50 (HLA-DRB1*04:01; [9]): 1070 nM
CSCC[C@H](NC(=O)[C@@H](NC(=O)CNC(=O)[C@@H]1CCCN1C(=O)[C@H](CCC(N)=O)NC(=O)CNC(=O)[C@@H](N)CCCNC(N)=O)C(C)C)C(=O)NCC(=O)N[C@@H](Cc1ccccc1)C(=O)N1CCC[C@H]1C(=O)NCC(=O)N1CCC[C@H]1C(=O)N[C@@H](CCCCN)C(=O)NCC(=O)N[C@@H](C)C(=O)O [XGQPGVMGFPGPKGA] (H-[Cit]GQPGVMGFPGPKGA-OH) |  |  |  |  | IC50 (HLA-DRB1*01:01; [7]): 493 nM; IC50 (HLA-DRB1*04:01; [9]): > 40000 nM
